Patent US8263606B2 (Xenon Pharmaceuticals Inc., priority 2008, dated 2012)

Experiments:
sodium channel = assay: Guanidine influx assay (14C-guanidine radiotracer flux, in vitro); type: cell-based, human or rat; details: guanidine influx assay using a known cell line that expresses a sodium channel
Summary of the method: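 Cells (human/rat Nav, endogenous or recombinant), ~100,000/well, 20-24 h 37 °C/5% CO2. Wash LNHBSS (150 mM choline Cl, HEPES, glucose). Add cpd + aconitine/14C-guanidine mix, RT. Wash, dry, scintillation count. IC50: 4-PL fit; selectivity as IC50 ratio vs reference channel, e.g. Nav1.5.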

CYP3A4 = CYP3A4 (Homo sapiens, UniProt P08684); assay: Cytochrome P450 (CYP450) Inhibition Assay, CYP3A4 (Vivid fluorescence, BOMCC substrate); details: human, P450 Baculosomes (recombinant CYP3A4), probe BOMCC (Vivid substrate)
Chain of CYP3A4 (P08684 whole entry): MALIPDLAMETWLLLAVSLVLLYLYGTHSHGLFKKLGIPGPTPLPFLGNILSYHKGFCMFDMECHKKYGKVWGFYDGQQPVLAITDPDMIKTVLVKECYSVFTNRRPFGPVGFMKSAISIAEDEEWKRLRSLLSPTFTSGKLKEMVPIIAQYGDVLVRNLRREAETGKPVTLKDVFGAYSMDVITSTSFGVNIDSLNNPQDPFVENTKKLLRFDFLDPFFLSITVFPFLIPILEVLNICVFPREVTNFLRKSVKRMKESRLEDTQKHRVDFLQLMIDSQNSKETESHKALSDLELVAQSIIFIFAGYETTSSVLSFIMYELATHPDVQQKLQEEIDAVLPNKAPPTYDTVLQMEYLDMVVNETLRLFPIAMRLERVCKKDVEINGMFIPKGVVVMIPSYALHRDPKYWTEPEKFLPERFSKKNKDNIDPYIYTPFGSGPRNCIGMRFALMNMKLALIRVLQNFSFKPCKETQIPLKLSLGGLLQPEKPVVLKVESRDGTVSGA

| SMILES | IC50 (sodium channel; activity level class) | inhibition at 10 µM (CYP3A4) | melting point | IC50 (sodium channel) |
| --- | --- | --- | --- | --- |
| O=C1CC[C@@H](CN2C(=O)C3(COc4cc5c(cc43)CCO5)c3ccccc32)N1 (stereo partly drawn) [Example 9.2, 1′-{[(2S)-5-oxopyrrolidin-2-yl]methyl}-5,6-dihydrospiro[benzo[1,2-b:5,4-b′]difuran-3,3′-indol]-2′(1′H)-one] | 1000 to 10000 nM | < 50% | 133 to 136 °C |  |
| Cc1ccc(F)c2c1NC(=O)C21COc2cc3c(cc21)CCO3 (stereo not drawn) [Example 3.17, 4′-fluoro-7′-methyl-5,6-dihydrospiro[benzo[1,2-b:5,4-b′]difuran-3,3′-indol]-2′(1′H)-one] | 100 to 1000 nM | > 50% | > 250 °C |  |
| COc1cc2c(cc1F)C1(CO2)C(=O)N(C[C@H]2CCCO2)c2ccccc21 (stereo partly drawn) [Example 4.66, 5-fluoro-6-methoxy-1′-[(2R)-tetrahydrofuran-2-ylmethyl]spiro[1-benzofuran-3,3′-indol]-2′(1′H)-one] | 100 to 1000 nM | < 50% | 106 to 116 °C |  |
| O=C1N(Cc2noc(C(F)F)n2)c2ccccc2C12COc1cc3c(cc12)OCO3 (stereo not drawn) [Example 11.22, 1-{[5-(difluoromethyl)-1,2,4-oxadiazol-3-yl]methyl}spiro[furo[2,3-f][1,3]benzodioxole-7,3′-indol]-2′(1′H)-one] |  | > 50% | 137 to 139 °C | 1 to 100 nM |
| O=C1N(C[C@@H]2COCCO2)c2ccccc2C12COc1cc3c(cc12)OCC3 (stereo partly drawn) [Example 8.10, 1′-[(2R)-1,4-dioxan-2-ylmethyl]-6,7-dihydrospiro[benzo[1,2-b:4,5-b′]difuran-3,3′-indol]-2′(1′H)-one] | 100 to 1000 nM | < 50% | 162 to 164 °C |  |
| O=C1Nc2ccccc2C12COc1cc3c(cc12)CCCC3 (stereo not drawn) [Example 3.45, 5′,6′,7′,8′-tetrahydrospiro[indole-3,3′-naphtho[2,3-b]furan]-2(1′H)-one] | 1000 to 10000 nM | > 50% | > 230 °C |  |
| CC(C)NC(=O)N1CCCC(CCN2C(=O)C3(COc4cc5c(cc43)OCO5)c3ccccc32)C1 (stereo not drawn) [Example 11.73, N-isopropyl-3-[2-(2′-oxospiro[furo[2,3-f][1,3]benzodioxole-7,3′-indol]-1′(2′H)-yl)ethyl]piperidine-1-carboxamide] |  | > 50% | 206 to 208 °C | 100 to 1000 nM |
| COc1ccc(CN2C(=O)C3(COc4cc(F)c(C#N)cc43)c3ccccc32)cc1 (stereo not drawn) [Example 2.40, 6-fluoro-1′-(4-methoxybenzyl)-2′-oxo-1′,2′-dihydrospiro[1-benzofuran-3,3′-indole]-5-carbonitrile] | 1000 to 10000 nM | > 50% | 142 to 143 °C |  |
| O=C1N(Cc2ncccc2C(F)(F)F)c2ccccc2C12COc1c2ccc2c1OCCO2 (stereo not drawn) [Example 5.37, 1′-{[3-(trifluoromethyl)pyridin-2-yl]methyl}-2,3-dihyrospiro[furo[2,3-f][1,4]benzodioxine-7,3′-indol]-2′(1′H)-one] | 100 to 1000 nM | < 50% | 206 to 207 °C |  |
| O=C1N(Cc2ccccc2CF)c2ccccc2C12COc1cc3c(cc12)OCCO3 (stereo not drawn) [Example 4.93] | 1 to 100 nM | > 50% | 188 to 190 °C |  |
| O=C1N(Cc2ccc(OCc3ccccc3)cc2)c2ccccc2C12COc1cc3c(cc12)CCO3 (stereo not drawn) [Example 9.38, 1′-[4-(benzyloxy)benzyl]-5,6-dihydrospiro[benzo[1,2-b:5,4-b′]difuran-3,3′-indol]-2′(1′H)-one] | 100 to 1000 nM | < 50% | 169 to 170 °C |  |
| O=C1N(Cc2ccc3ncnn3c2)c2ccccc2C12COc1cc3c(cc12)OCCO3 (stereo not drawn) [Example 39, 1′-([1,2,4]triazolo[1,5-a]pyridin-6-ylmethyl)-2,3-dihydrospiro[furo[2,3-g][1,4]benzodioxine-8,3′-indol]-2′(1′H)-one] |  | > 50% | 207 to 209 °C | 1 to 100 nM |
| O=C1N(C[C@H]2CCCO2)c2ccccc2C12COc1cc3c(cc12)CCCO3 (stereo partly drawn) [Example 4.53, 1′-[(2R)-tetrahydrofuran-2-ylmethyl]-6,7-dihydro-5H-spiro[furo[3,2-g]chromene-3,3′-indol]-2′(1′H)-one] | 100 to 1000 nM | < 50% | 151 to 156 °C |  |
| COc1ncc(CN2C(=O)C3(COc4cc5c(cc43)CCO5)c3ccccc32)cn1 (stereo not drawn) [Example 5, 1-[(2-methoxypyrimidin-5-yl)methyl]-5,6-dihydrospiro[benzo[1,2-b:5,4-b′]difuran-3,3′-indol]-2′(1′H)-one] | 100 to 1000 nM | < 50% | 203 to 204 °C |  |
| CN1CCOc2cc3c(cc21)C1(CO3)C(=O)N(C[C@H]2CCCO2)c2ccccc21.Cl (stereo partly drawn) [Example 2.29, 1-methyl-1′-[(2R)-tetrahydrofuran-2-ylmethyl]-2,3-dihydro-1H-spiro[furo[3,2-g][1,4]benzoxazine-8,3′-indol]-2′(1′H)-one hydrochloride] | 100 to 1000 nM | < 50% | > 135 °C (dec.) |  |
| CC(C)c1ncc(CN2C(=O)C3(COc4cc5c(cc43)OCO5)c3ccccc32)o1 (stereo not drawn) [Example 4.77, 1′-[(2-isopropyl-1,3-oxazol-5-yl)methyl]spiro[furo[2,3-f][1,3]benzodioxole-7,3′-indol]-2′(1′H)-one] | 1 to 100 nM | > 50% | 75 to 77 °C |  |
| O=C1N(Cc2cc(C(F)(F)F)ccn2)c2ccccc2C12COc1cc3c(cc12)OCCO3 (stereo not drawn) [Example 23, 1′-{[4-(trifluoromethyl)pyridin-2-yl]methyl}-2,3-dihydrospiro[furo[2,3-g][1,4]benzodioxine-8,3′-indol]-2′(1′H)-one] |  | < 50% | 154 to 155 °C | 1 to 100 nM |
| O=C1N(Cc2ccc(Cl)s2)c2cccc(-c3ccoc3)c2C12COc1cc3c(cc12)OCO3 (stereo not drawn) [Example 16.13, 1′-[(5-chloro-2-thienyl)methyl]-4′-(3-furyl)spiro[furo[2,3-f][1,3]benzodioxole-7,3′-indol]-2′(1′1-1)-one] |  | > 50% | 166 to 168 °C | 100 to 1000 nM |
| O=C1N(CC2CN(Cc3ccccc3)CCO2)c2ccccc2C12COc1cc3c(cc12)OCCO3 (stereo not drawn) [Example 9.60, 1′-[(4-benzylmorpholin-2-yl)methyl]-2,3-dihydrospiro[furo[2,3-g][1,4]benzodioxine-8,3′-indol]-2′(1′H)-one] |  | > 50% | 88 to 100 °C | 100 to 1000 nM |
| Cc1cccc(C)c1NC(=O)CN1C(=O)C2(COc3cc4c(cc32)CCO4)c2ccccc21 (stereo not drawn) [Example 12.56, N-(2,6-dimethylphenyl)-2-(2′-oxo-5,6-dihydrospiro[benzo[1,2-b:5,4-b′]difuran-3,3′-indol]-1′(2′H)-yl)acetamide] |  | > 50% | 261 to 262 °C | 1000 to 10000 nM |
| Cc1ccc(NC(=O)CN2C(=O)C3(COc4cc5c(cc43)CCO5)c3ccccc32)c(C)c1 (stereo not drawn) [Example 12.54, N-(2,4-dimethylphenyl)-2-(2′-oxo-5,6-dihydrospiro[benzo[1,2-b:5,4-b′]difuran-3,3′-indol]-1′(2′H)-yl)acetamide] |  | > 50% | 277 to 279 °C | 1000 to 10000 nM |
